Drawing on PubChem BioAssay (NCI), this text covers TGI and GI50 for twelve compounds.

Test systems include UACC-62 melanoma; NCI/ADR-RES ovarian; SF-268 CNS; MCF7 breast; ACHN renal; HS 578T breast; UACC-257 melanoma; U251 CNS; SK-MEL-28 melanoma; SF-539 CNS; SF-295 CNS; CCRF-CEM leukemia; TK-10 renal; HCC-2998 colon; SK-MEL-2 melanoma; HCT-15 colon; MDA-N; OVCAR-3 ovarian.
Holding throughout (experiment): NCI anticancer screen, dose series, 48 h

Structures are written as SMILES.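 These data come from cells grown in 96-well plates and exposed to compound for 48 hours at five concentrations. GI50 = concentration required for 50% inhibition of growth. TGI: concentration producing complete growth inhibition.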 Bounds are passed on as bounds.

For `CCOc1cc2c(cc1O)CC[C@@H]1[C@@H]2CC[C@]2(C)C(N)CC[C@@H]12` (stereo partly drawn), the TGI came to 16.8 µM in the test with UACC-62 melanoma; 8.98 µM with NCI/ADR-RES ovarian; 23.8 µM in the test on SF-268 CNS; 28.1 µM in the test with MCF7 breast; 26.2 µM with ACHN renal; 23.2 µM in the test on HS 578T breast. The TGI in the test on UACC-257 melanoma came out at 16.3 µM; in the test on U251 CNS, 9.37 µM; with SK-MEL-28 melanoma it was 23.6 µM; in the test with SF-539 CNS, 9.25 µM; in the test on SF-295 CNS, 12.5 µM; in the test with CCRF-CEM leukemia it was 18.2 µM. For the same compound, the TGI in the test on TK-10 renal was 15 µM; with HCC-2998 colon, 5.44 µM; with SK-MEL-2 melanoma it was 21.3 µM; with HCT-15 colon, 13.8 µM; in the test with MDA-N it was 3.6 µM; with OVCAR-3 ovarian, 24.7 µM.
Turning to `CN(C)CCCNc1c(C#N)[n+]([O-])c2cc(Cl)ccc2[n+]1[O-]`, the TGI in the test with UACC-62 melanoma was 17.4 µM; with NCI/ADR-RES ovarian, > 57.3 µM; in the test on SF-268 CNS, > 64.4 µM; in the test with MCF7 breast, > 52.7 µM; in the test on ACHN renal, 22.2 µM; in the test with HS 578T breast it was > 100 µM. In addition, the TGI in the test with UACC-257 melanoma is > 50 µM; in the test with U251 CNS it was > 66.6 µM; with SK-MEL-28 melanoma it was > 100 µM; in the test on SF-539 CNS it was 47.4 µM; in the test on SF-295 CNS, > 49.1 µM; in the test with CCRF-CEM leukemia, 42 µM. The TGI in the test on TK-10 renal was > 39.9 µM; in the test on HCC-2998 colon, 18.7 µM; in the test with SK-MEL-2 melanoma, 36.4 µM; in the test on HCT-15 colon, 18.6 µM; in the test on MDA-N it was > 59.9 µM; in the test on OVCAR-3 ovarian, > 34.9 µM.
With `OC1[C@H](O)CN(OCc2ccccc2)C[C@@H]1O` (stereo partly drawn), the TGI in the test on UACC-62 melanoma, with NCI/ADR-RES ovarian, with SF-268 CNS, in the test with MCF7 breast, in the test with ACHN renal and in the test on HS 578T breast was > 100 µM throughout. The TGI in the test on UACC-257 melanoma, in the test with U251 CNS, in the test on SK-MEL-28 melanoma, in the test on SF-539 CNS, in the test on SF-295 CNS and with CCRF-CEM leukemia was > 100 µM in each case. Besides, the TGI with TK-10 renal, in the test with HCC-2998 colon, in the test on SK-MEL-2 melanoma, with HCT-15 colon, in the test with MDA-N and in the test with OVCAR-3 ovarian was > 100 µM in each case.
On to `CCCCN(Cc1ccccc1)C(=NC#N)N(Cc1ccccc1)Cc1ccccc1`, for which the TGI is 74.7 µM in the test with UACC-62 melanoma; 59.7 µM in the test with NCI/ADR-RES ovarian; > 100 µM in the test with SF-268 CNS; > 100 µM in the test with MCF7 breast; > 72.3 µM with ACHN renal; 99.1 µM in the test with HS 578T breast. Also, the TGI was 50.7 µM in the test with UACC-257 melanoma; 81.4 µM with U251 CNS; > 100 µM in the test with SK-MEL-28 melanoma; 46.8 µM in the test on SF-539 CNS; > 66 µM in the test on SF-295 CNS; > 100 µM in the test on CCRF-CEM leukemia. In addition, the TGI in the test on TK-10 renal was > 100 µM; in the test with HCC-2998 colon it was > 75.7 µM; in the test with SK-MEL-2 melanoma it was 37.6 µM; with HCT-15 colon, 77.2 µM; in the test with MDA-N it was 59.9 µM; in the test on OVCAR-3 ovarian, 28.9 µM.
As for `NC1CC(Cl)c2c(Cl)sc(Cl)c21` (stereo not drawn), the TGI in the test with UACC-62 melanoma, in the test with NCI/ADR-RES ovarian, in the test on SF-268 CNS, in the test with MCF7 breast, in the test with ACHN renal and in the test with HS 578T breast was > 100 µM throughout. The TGI with UACC-257 melanoma, in the test with U251 CNS, in the test on SK-MEL-28 melanoma, in the test with SF-539 CNS, in the test with SF-295 CNS and with CCRF-CEM leukemia was > 100 µM each time. Further, the TGI in the test with TK-10 renal, with HCC-2998 colon, with SK-MEL-2 melanoma, in the test with HCT-15 colon, in the test with MDA-N and with OVCAR-3 ovarian was > 100 µM in each case.
In the case of `O=C(Cc1ccc(Cl)cc1)Nc1ccc2oc(-c3ccccc3)nc2c1`, the TGI in the test with UACC-62 melanoma, with NCI/ADR-RES ovarian, in the test with SF-268 CNS, in the test with MCF7 breast, with ACHN renal and with HS 578T breast was > 100 µM throughout. Further, the TGI with UACC-257 melanoma, with U251 CNS, in the test with SK-MEL-28 melanoma, in the test on SF-539 CNS, in the test on SF-295 CNS and in the test on CCRF-CEM leukemia was > 100 µM each time. Also, the TGI with TK-10 renal, in the test on HCC-2998 colon, with SK-MEL-2 melanoma, in the test with HCT-15 colon, in the test on MDA-N and with OVCAR-3 ovarian was > 100 µM each time.
`Nc1nc2n[nH]nc2c(=O)[nH]1`: the TGI with UACC-62 melanoma is 2.62 µM; in the test with NCI/ADR-RES ovarian, > 100 µM; in the test with SF-268 CNS, > 100 µM; with MCF7 breast, > 100 µM; in the test with ACHN renal, > 59.7 µM; in the test with HS 578T breast, 20.4 µM. For the same compound, the TGI with UACC-257 melanoma was 56.2 µM; with U251 CNS, > 100 µM; in the test with SK-MEL-28 melanoma, 9.4 µM; in the test with SF-539 CNS, 1.96 µM; in the test on SF-295 CNS, > 33.1 µM; in the test on CCRF-CEM leukemia, > 100 µM. The TGI is 12.7 µM with TK-10 renal; > 100 µM in the test on HCC-2998 colon; 1.69 µM with SK-MEL-2 melanoma; > 100 µM with HCT-15 colon; 15.4 µM with MDA-N; 73.8 µM in the test with OVCAR-3 ovarian.
For `CC(C)(C)OC(=O)N1CCC2(C)CC(=O)CC=C12` (stereo not drawn), the TGI in the test on UACC-62 melanoma, with NCI/ADR-RES ovarian, with SF-268 CNS, in the test with MCF7 breast, in the test with ACHN renal and with HS 578T breast was > 100 µM throughout. In addition, the TGI with UACC-257 melanoma, in the test with U251 CNS, with SK-MEL-28 melanoma, in the test with SF-539 CNS, in the test with SF-295 CNS and with CCRF-CEM leukemia was > 100 µM throughout. Moreover, the TGI with TK-10 renal, in the test with HCC-2998 colon, in the test with SK-MEL-2 melanoma, with HCT-15 colon, in the test with MDA-N and in the test with OVCAR-3 ovarian was > 100 µM in each case.
On to `O=[N+]([O-])c1cc2c(c([N+](=O)[O-])c1)NCc1ccccc1O2`, for which the TGI in the test on UACC-62 melanoma, with NCI/ADR-RES ovarian, in the test on SF-268 CNS, with MCF7 breast, with ACHN renal and in the test on HS 578T breast was > 100 µM throughout. Moreover, the TGI in the test with UACC-257 melanoma, with U251 CNS, with SK-MEL-28 melanoma, in the test on SF-539 CNS, in the test with SF-295 CNS and in the test with CCRF-CEM leukemia was > 100 µM throughout. Also, the TGI with TK-10 renal, in the test with HCC-2998 colon, in the test with SK-MEL-2 melanoma, in the test on HCT-15 colon, in the test with MDA-N and in the test on OVCAR-3 ovarian was > 100 µM in each case.
For `Cc1cc2nc(N3C(=O)/C(=C/c4ccccc4S)N=C3c3ccccc3)sc2cc1C`, the TGI in the test on UACC-62 melanoma was > 100 µM; in the test with NCI/ADR-RES ovarian, 92.3 µM; in the test on SF-268 CNS, > 100 µM; in the test with MCF7 breast, > 100 µM; with ACHN renal it was > 100 µM; in the test with HS 578T breast, > 100 µM. For the same compound, the TGI in the test on UACC-257 melanoma was > 100 µM; in the test with U251 CNS it was > 100 µM; in the test with SK-MEL-28 melanoma, > 100 µM; in the test on SF-539 CNS, > 100 µM; with SF-295 CNS, > 100 µM; in the test on CCRF-CEM leukemia, 46.6 µM. Besides, the TGI is > 100 µM with TK-10 renal; > 100 µM in the test with HCC-2998 colon; 56.7 µM with SK-MEL-2 melanoma; > 100 µM in the test with HCT-15 colon; 39.1 µM with MDA-N; > 100 µM with OVCAR-3 ovarian.
Turning to `O=S(Nc1ccccc1)c1ccc(Cl)c(Cl)c1` (stereo not drawn), the TGI in the test with UACC-62 melanoma was 64.6 µM; with NCI/ADR-RES ovarian it was > 100 µM; in the test with SF-268 CNS, 82.9 µM; with MCF7 breast, > 100 µM; with ACHN renal it was > 100 µM; in the test on HS 578T breast, 84.7 µM. Moreover, the TGI was > 100 µM with UACC-257 melanoma; 34.2 µM in the test on U251 CNS; > 100 µM with SK-MEL-28 melanoma; 53 µM with SF-539 CNS; 50.1 µM in the test on SF-295 CNS; > 100 µM in the test with CCRF-CEM leukemia. The TGI in the test on TK-10 renal, in the test on HCC-2998 colon, with SK-MEL-2 melanoma, in the test with HCT-15 colon, in the test with MDA-N and in the test on OVCAR-3 ovarian was > 100 µM each time.
Consider `CC(=O)c1cccc(Nc2nc3ccc(Cl)cc3c3[nH]c4ccccc4c23)c1`, for which the TGI in the test with UACC-62 melanoma is 24.4 µM; in the test with NCI/ADR-RES ovarian, 79.5 µM; in the test on SF-268 CNS, 36.9 µM; in the test on MCF7 breast, > 21.9 µM; in the test on ACHN renal, 40.6 µM; in the test on HS 578T breast, 66.4 µM. Also, the TGI in the test on UACC-257 melanoma was > 88.2 µM; in the test with U251 CNS it was 14.7 µM; in the test on SK-MEL-28 melanoma, > 100 µM; in the test on SF-539 CNS, 30.1 µM; in the test with SF-295 CNS it was 11.1 µM; with CCRF-CEM leukemia, > 100 µM. In addition, the TGI in the test on TK-10 renal was 25.8 µM; with HCC-2998 colon, > 100 µM; with SK-MEL-2 melanoma, 30.8 µM; in the test with HCT-15 colon, > 100 µM; in the test with MDA-N it was > 100 µM; in the test on OVCAR-3 ovarian, 8.16 µM. Further, the GI50 was 16.5 µM in the test on SK-MEL-28 melanoma and 14.2 µM in the test on HCC-2998 colon.
